Data from BindingDB's records for doi:10.1021/acs.jmedchem.2c02098 (University of Bologna, 2023).

How the values were obtained:
[1] = molecular target: Integrin alpha-L/beta-2 (LFA-1) (Homo sapiens); assay: Agonist activity at alphaLbeta2 integrin receptor in human Jurkat E6.1 cells assessed as inhibition of ICAM-1-induced cell adhesion pre-incubated for 30 mins followed by 30 mins incubation in ICAM-1 coated wells by fluorescence plate reader assay
[2] = molecular target: Integrin alpha4/beta1 (Homo sapiens); assay: Agonist activity at alpha4beta1 integrin receptor in human Jurkat E6.1 cells assessed as inhibition of vascular cell adhesion molecule 1-induced cell adhesion pre-incubated for 30 mins followed by 30 mins incubation in vascular cell adhesion molecule 1 coated wells by fluorescence plate reader assay
[3] = molecular target: Integrin alpha4/beta1 (Homo sapiens); assay: Agonist activity at alpha4beta1 integrin receptor in human Jurkat E6.1 cells assessed as inhibition of fibronectin-induced cell adhesion pre-incubated for 30 mins followed by 30 mins incubation in fibronectin coated wells by fluorescence plate reader assay
[4] = molecular target: Integrin alpha5/beta1 (Homo sapiens); assay: Agonist activity at alpha5beta1 integrin receptor in human K562 cells assessed as inhibition of fibronectin-induced cell adhesion pre-incubated for 30 mins followed by 1 hr incubation in fibronectin coated wells by fluorescence plate reader assay

| Structure (SMILES) | EC50 [1] [µM] | EC50 [2] [µM] | EC50 [3] [µM] | EC50 [4] [µM] |
| --- | --- | --- | --- | --- |
| Cc1ccccc1NC(=O)N1C(=O)CC1CC(=O)NCC(=O)O (stereo not given) | > 5 | > 5 | > 5 | – |
| Cc1ccccc1NC(=O)N1C(=O)CC1CC(=O)O (stereo not given) | > 5 | – | – | > 5 |
